Measured values reported in patent publication US20230302159A1, “COMPOUNDS AND COMPOSITIONS FOR TUMOR DETECTION AND SURGICAL GUIDANCE” (Cornell University, priority 2020, published 2023).
Several values for one entry are separate records, joined by “and”; a condition that tells them apart may be missing. Identical values can stand only once. Entries after “also recorded” stand apart in the source; their conditions may differ.

Assays:
[1] = system: SKOV3/GFP-Luc disseminated peritoneal tumors; assay: In vivo fluorescence imaging of disseminated peritoneal tumors after IP administration; parameters: species or system mice
Experimental: (§1) Tumor models of subcutaneous implants and peritoneal implants. All animal procedures were carried out in compliance with the approved animal protocols and guidelines of the Institutional Animal Care and Use Committee at Weil Cornell Medical College. Mice (female, SCID Hairless Outbred Mouse) were purchased from Charles River (Wilmington, MA). To establish the subcutaneous implants, a suspension of OVASAHO/RFP-Luc cells (5.0×10^6) or SKOV3/GFP-Luc cells (5.0×10^6) in 100 μL PBS was inoculated into each flank of the female nude mice on both sides. After two weeks, the tumor implants grew to around 5 mm in size and were used for the spray experiment. To establish the peritoneal implants, SKOV3/GFP-Luc cells (5.0×10^6) suspended in […] were injected into the abdominal cavities of the female nude mice. After two weeks, the tumor growth was examined with an in vivo bioluminescence imaging system followed by peritoneal injection of D-luciferin potassium solution (200 μL, 15 mg/mL) for 10 min. Generally, mice bearing multiple disseminated peritoneal implants of 5 mm size in diameter were used for the experiment.
In vivo fluorescence imaging of disseminated peritoneal tumors. […] The fluorescence images were captured for the whole cavity under both the GFP and Cy7 channels. […] Regions of interest (ROI, n=6, and average area=0.28±0.1 cm^2) within the tumor nodules and in the adjacent normal areas in the peritoneal cavity were drawn and calculated for tumor-to-normal tissue ratio.
(§2) Histology. To gain knowledge about the CypH-11 distribution in tumors after administration via spray and i.p. injection, the tumors were excised and analyzed. […] The slides were imaged first with a fluorescence microscope (EVOS, Thermofisher Scientific, Waltham, MA) and were subsequently stained with hematoxylin and eosin Y solution (H&E) to assess their histologic alterations under a light microscope.

[2] = Relative quantum yield measurement against ICG standard; assay type: physicochemical; details: at pH 4.0, PBS
Experimental: Spectroscopic analysis. Stock solutions (1 mM in DMSO) of CypH-11, CypH-1, and Cy7 were stored at a −30° C. freezer and used for the following experiments. For the pKa measurement, the respective compound was diluted in 20 mM phosphate-buffered solution (PBS, pH 2.0-11.0) to a final concentration of 2 μM. The fluorescence intensity (λex=725 nm and λcm=785 nm) was measured on a plate reader (Tecan Infinite M1000 Pro), and the fluorescence images were recorded with a fluorescence imaging system (Bruker In-vivo F Pro). For the quantum yield measurement, indocyanine green (ICG, Φ=1.2% in water) was used as the standard compound. The respective compound (0.4, 0.8, 1.2, 1.6, and 2.0 μM) in PBS solutions (pH=4.0 and pH=7.4) was measured using a Cary 60 UV-Vis spectrophotometer and Cary Eclipse fluorescence spectrophotometer (Agilent). The slope of fluorescence vs absorbance was compared with that of ICG to calculate the relative quantum yield.

[3] = system: SKOV3/GFP-Luc subcutaneous tumors; assay: In vivo fluorescence imaging of subcutaneous tumors by spraying, SKOV3/GFP-Luc model; parameters: species or system mice; details: for signal to background ratio: 2 μM
Experimental: as §1
In vivo fluorescence imaging of subcutaneous tumors. Two subcutaneous tumor models (OVASAHO/RFP-Luc and SKOV3/GFP-Luc) were used to compare the imaging capability of CypH-11, CypH-1, and Cy7. Mice bearing the subcutaneous implants were anesthetized in an induction chamber using 2% isoflurane, and anesthesia was maintained with 1.5-2.0% isoflurane via a nose cone. Sterile surgical tools were used to remove skin around the tumor. The mice images were captured using an IVIS SpectrumCT System from PerkinElmer (Waltham, MA). OVASAHO/RFP-Luc and SKOV3/GFP-Luc tumors were captured under an RFP channel (Excitation: 520-550 nm and Emission: 570-590 nm) and a GFP channel (Excitation: 450-480 nm and Emission: 510 530 nm), respectively. A Cy7 channel (Excitation: 730-760 nm and Emission: 790-810 nm) was applied to evaluate the fluorescence generated by CypH-11, CypH-1, and Cy7. After skin removal, the tumor area and the background fluorescence under the Cy7 channel were measured first. Solutions of CypH-11, CypH-1, and Cy7 (2 μM each) were sprayed on the surgical area, and the fluorescence of the Cy7 channel was measured continuously at each time point (1, 3, 5, 7, 10, and 15 min). Ten, five, and three OVASAHO tumors were used to evaluate CypH-11, CypH-1, and Cy7, respectively. Six SKOV3 tumors were used to evaluate CypH-11. To evaluate the tumor-to-normal tissue ratio, the whole tumor regions and the adjacent open-skin areas were drawn, and their fluorescence intensity was acquired by the IVIS software. Tumor-to-normal tissue ratio value was calculated as the average fluorescence intensity of the tumor divided by that of the normal area. Also, tumor-bearing mice were euthanized by carbon dioxide inhalation or a high dose of isoflurane (5%). The subcutaneous tumors and the adjacent muscles were then extracted, and CypH-11 (2 μM) was sprayed onto them. Images were subsequently captured under GFP/RFP/Cy7 channels.
as §2

CC(C)N(C)c1ccc(OC2=C(/C=C/C3=[N+](C(C)C)c4ccccc4C3(C)C)CCC/C2=C\C=C2\N(C(C)C)c3ccccc3C2(C)C)cc1.[I-] [CypH-11]
tumor signal higher than the background of the peritoneum, liver, and intestine ([1]; 1 h post IP, 200 μL 2 μM in PBS): 3- to 4 fold
size of smallest tumors detected ([1]; 1 h post IP, no washing): 1 mm and < 1 mm
NIR signal depth in tumor after IP injection ([1]; IP, within an hour, histology): 6-7 layers of cells
quantum yield (Φ) [2]: 3.3%
signal to background ratio ([3]; 1 min after spray): 1.3
signal to background ratio ([3]; 5 min after spray): 1.4
signal to background ratio ([3]; 10 min after spray): 1.6
NIR signal depth in tumor after spray ([3]; sprayed, 15 min, histology): 2-3 layers of cells
CypH-11 signal when sprayed ex vivo on excised 20-min old dead tissues ([3]; tumor and muscle excised, held 20 min, then sprayed): no NIR signal could be detected; also recorded: No CypH-11 signal in tumor or muscle was observed
